These compounds were tested against recombinant human PAD4 (Homo sapiens (Human), UniProt Q9UM07) (assay: RFMS Human PAD4 Functional Assay 2). Settings: RFMS assay 2; 35 nM recombinant human PAD4, 500 μM TSTGGRQGSHH peptide, 2 mM CaCl2, room temperature 30 minutes; read-out: hPAD4 RFMS IC50.
Type: biochemical
Protocol: RFMS Human PAD4 Functional Assay 2: Compound Preparation: • Stock compounds were dissolved and stored in 100% DMSO. Compound solutions were prepared via serial dilution at 3-fold intervals in DMSO with top compound concentration at 20 μM in each assay. 0.25 μl of compound solution was transferred from the compound plate to the assay plate by using an acoustic dispenser. Final Assay Conditions: • Total reaction volume: 25 μl • Assay buffer: […] pH 7.4, 200 mM NaCl, 2 mM CaCl2, 5 mM DTT • 35 nM recombinant human PAD4 • 500 μM TSTGGRQGSHH peptide • […] DMSO • Stop solution: 10% formic acid
Reaction mixtures were incubated at room temperature for 30 minutes. 10 μl each of the reaction mixtures was then mixed with 40 μl of 10% formic acid in a microtiter plate. The plate was frozen at −80° C. before shipping out on dry ice for RapidFire mass spectroscopy analysis.
Thawed samples were loaded onto the Rapid Fire 300 system (Agilent) wherein they were first sipped for 250 ms and then loaded onto an Agilent “C” (C18) cartridge using a mobile phase of water containing 0.09% formic acid/0.01% trifluoroacetic acid for 3000 ms desalting flowing at a rate of 1.5 ml/min. Once the samples were loaded and washed, a mobile phase of acetonitrile containing 0.09% formic acid/0.01% trifluoroacetic acid was used to elute the samples directly onto a Sciex API4000 triple quadrupole mass spectrometer for 3000 ms at a flow rate of 1.25 ml/min.
MRM transitions for substrate and product were monitored in positive ESI mode at m/z=562.3/969.7 and m/z=562.8/541.3 respectively. The dwell time for each transition was set at 100 ms, and the ESI voltage was used at 5500 with a source temperature of 650° C. Extracted ion peaks for each transition were integrated using the Rapid Fire Integrator software.

Chain of recombinant human PAD4 (Q9UM07 whole entry): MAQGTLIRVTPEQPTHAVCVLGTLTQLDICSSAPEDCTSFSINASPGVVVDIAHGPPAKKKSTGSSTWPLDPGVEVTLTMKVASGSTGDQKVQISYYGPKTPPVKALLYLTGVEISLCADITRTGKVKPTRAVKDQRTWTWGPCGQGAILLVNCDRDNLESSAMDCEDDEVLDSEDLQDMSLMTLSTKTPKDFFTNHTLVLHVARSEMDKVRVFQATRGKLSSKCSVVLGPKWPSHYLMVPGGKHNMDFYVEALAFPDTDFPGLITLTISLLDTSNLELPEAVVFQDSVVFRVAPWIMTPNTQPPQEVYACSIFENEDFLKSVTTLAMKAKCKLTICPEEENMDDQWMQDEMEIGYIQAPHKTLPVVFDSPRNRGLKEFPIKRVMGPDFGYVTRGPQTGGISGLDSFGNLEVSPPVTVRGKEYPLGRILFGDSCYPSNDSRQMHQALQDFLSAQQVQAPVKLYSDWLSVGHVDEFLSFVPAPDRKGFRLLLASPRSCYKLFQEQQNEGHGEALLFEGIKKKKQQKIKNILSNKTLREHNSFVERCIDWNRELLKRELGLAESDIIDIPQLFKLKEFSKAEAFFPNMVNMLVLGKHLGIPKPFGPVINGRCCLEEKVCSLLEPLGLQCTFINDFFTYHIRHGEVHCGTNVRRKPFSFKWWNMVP

Row | Structure (SMILES) | IC50
1 | COc1cc(C(=O)N2C[C@H](N)C[C@@H](F)C2)cc2oc(-c3cc4cccc(OC)c4n3CC3CC3)c(CCO)c12 [Example 632, ((3R,5R)-3-amino-5-fluoropiperidin-1-yl)(2-(1-(cyclopropylmethyl)-7-methoxy-1H-indol-2-yl)-3-(2-hydroxyethyl)-4-methoxybenzofuran-6-yl)methanone] | 0.327 µM
2 | COc1cc(C(=O)N2C[C@H](N)C[C@@H](F)C2)cc2oc(-c3cc4cccc(OCC5CNC(=O)C5)c4n3CC3CC3)c(CCO)c12 (stereo partly drawn) [Example 633, 4-(((2-(6-((3R,5R)-3-amino-5-fluoropiperidine-1-carbonyl)-3-(2-hydroxyethyl)-4-methoxybenzofuran-2-yl)-1-(cyclopropylmethyl)-1H-indol-7-yl)oxy)methyl)pyrrolidin-2-one] | 0.179 µM
3 | COc1cc(C(=O)N2C[C@H](N)C[C@@H](F)C2)cc2oc(-c3cc4cccc(OCCO)c4n3CC3CC3)c(CCO)c12 [Example 634, ((3R,5R)-3-amino-5-fluoropiperidin-1-yl)(2-(1-(cyclopropylmethyl)-7-(2-hydroxyethoxy)-1H-indol-2-yl)-3-(2-hydroxyethyl)-4-methoxybenzofuran-6-yl)methanone] | 0.209 µM
4 | COc1cc(C(=O)N2C[C@H](N)C[C@@H](F)C2)cc2oc(-c3cc4cccc(OCCn5cncn5)c4n3CC3CC3)c(CCO)c12 [Example 635, (2-(7-(2-(1H-1,2,4-triazol-1-yl)ethoxy)-1-(cyclopropylmethyl)-1H-indol-2-yl)-3-(2-hydroxyethyl)-4-methoxybenzofuran-6-yl)((3R,5R)-3-amino-5-fluoropiperidin-1-yl)methanone] | 0.216 µM
5 | COc1cc(C(=O)N2C[C@H](N)C[C@@H](F)C2)cc2oc(-c3cc4cccc(OCC5CNC5)c4n3CC3CC3)c(CCO)c12 [Example 636, ((3R,5R)-3-amino-5-fluoropiperidin-1-yl)(2-(7-(azetidin-3-ylmethoxy)-1-(cyclopropylmethyl)-1H-indol-2-yl)-3-(2-hydroxyethyl)-4-methoxybenzofuran-6-yl)methanone] | 0.277 µM
6 | COc1cc(C(=O)N2C[C@H](N)C[C@@H](F)C2)cc2oc(-c3cc4cccc(OCC5CN(C)C5)c4n3CC3CC3)c(CCO)c12 [Example 637, ((3R,5R)-3-amino-5-fluoropiperidin-1-yl)(2-(1-(cyclopropylmethyl)-7-((1-methylazetidin-3-yl)methoxy)-1H-indol-2-yl)-3-(2-hydroxyethyl)-4-methoxybenzofuran-6-yl)methanone] | 0.621 µM
7 | COc1cc(C(=O)N2C[C@H](N)C[C@@H](F)C2)cc2oc(-c3cc4cccc(OCC5COC5)c4n3CC3CC3)c(CCO)c12 [Example 638, ((3R,5R)-3-amino-5-fluoropiperidin-1-yl)(2-(1-(cyclopropylmethyl)-7-(oxetan-3-ylmethoxy)-1H-indol-2-yl)-3-(2-hydroxyethyl)-4-methoxybenzofuran-6-yl)methanone] | 0.295 µM
8 | COc1cc(C(=O)N2C[C@H](N)C[C@@H](F)C2)cc2oc(-c3cc4cccc(OCc5ncno5)c4n3CC3CC3)c(CCO)c12 [Example 639, (2-(7-((1,2,4-oxadiazol-5-yl)methoxy)-1-(cyclopropylmethyl)-1H-indol-2-yl)-3-(2-hydroxyethyl)-4-methoxybenzofuran-6-yl)((3R,5R)-3-amino-5-fluoropiperidin-1-yl)methanone] | 0.243 µM

From US12473304B2, “Heterocyclic PAD4 inhibitors” (BRISTOL-MYERS SQUIBB COMPANY, priority 2020, dated 2025)
